We go through 10 molecules from patent US12521393B2, “Cytotoxicity targeting chimeras for CCR2-expressing cells” (GLAXOSMITHKLINE INTELLECTUAL PROPERTY DEVELOPMENT LIMITED, priority 2021, dated 2026).

For experiment [1], the target named is T1, CHOK1 cells engineered to overexpress human CCR2 (Homo sapiens, UniProt P41597).
T1 construct: expressed in transfected cells; host or cells: CHOK1
Description: Antibody dependent cellular cytotoxicity (ADCC) reporter assay (Example 199). Type of experiment: cell-based. The note with it: with anti-cotinine antibody (SEQ ID NO: 11/12), Jurkat FcγRIIIa NFAT-luciferase reporter cells, 12-18 hours, EC50 in molar, average or individual runs; for EC50: read-out: ADCC Reporter Assay pEC50 (converted). The method, then: An antibody dependent cellular cytoxocity reporter assay was conducted using the following four assay components: (i) ARM compound of Formula (I) targeting CCR2 (concentrations ranging from […] to 10 μM) (ii) anti-cotinine antibody having a heavy chain sequence of SEQ ID NO: 11 and a light chain sequence of SEQ ID NO: 12 (rabbit variable region with human IgG1 Fc domain containing a DE mutation (S239D/1332E)) (concentrations ranging from 0.01 μg/mL to 200 μg/mL); (iii) target cells: CHOK1 cells engineered to overexpress either human CCR2 (typically 1000-20,000 cells per well) and (iv) reporter cells: Jurkat cells engineered to express FcγRIIIa with the reporter gene luciferase under the control of the NFAT promoter (typically 3000-75,000 cells per well). Reagents were combined in a final volume of 20 μL in a 384-well tissue culture treated plate. All four assay components were incubated together for about 12-18 hours. Thereafter, BioGlo Detection reagent (Promega) was added to the wells to lyse the cells and provide a substrate for the luciferase reporter protein. Luminescence signal was measured on a microplate reader and signal: background was calculated by dividing the signal of a test well by the signal obtained when no heterobivalent compound of Formula (I) was added. EC50 calculations were done using Graphpad Prism Software, specifically a nonlinear regression curve fit (Y=Bottom+(Top−Bottom)/(1+10A((LogEC50−X)*HillSlope))).
ARMs compounds of Formula (I) of the invention were tested for ADCC activity in the above assay in or more experimental runs and the results are shown in Table 3 below. Potency of the compounds of Formula (I) of the invention is reported as a pEC50 value. The pEC50 value is the negative log of the EC50 value, wherein the EC50 value is the half maximal effective concentration measured in molar (M). For compounds tested in more than one experimental run, the pEC50 value is reported as an average.
A general note: Reporter assays use an easily measured gene product as a stand-in for the process of interest.

In experiment [2] the test system is endogenous target monocytes in human PBMC. Description: PBMC ex vivo monocyte depletion flow cytometry assay (Example 200). Format: cell-based. The note with it: with anti-cotinine antibody (SEQ ID NO: 11/12), 18-24 hours, EC50 in molar, read-out: Ex Vivo Depletion Assay pEC50 (converted). In outline:
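Monocyte depletion is reported as pEC50, averaged or given individually across runs, and read by flow cytometry staining CD45, CD14 and CD4 with a viability dye. Compounds, diluted four-fold over 11 points from 1 mM DMSO stocks, were combined with 30 μg/mL Fc-enhanced anti-cotinine antibody and human PBMC, then incubated 18-24 h at 37° C.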

The test system of experiment [3] is CCR2 expressing cells (CD11b+Ly6c+Hi) in peripheral blood. The experiment in a line: In vivo depletion assay, flow cytometry of peripheral blood (Example 201). Also on record: species or system human CCR2 knock-in mice (C57 background). Conditions: hCCR2 knock-in mice, IV 0.1 mpk compound + 10 mpk anti-cotinine antibody (SEQ ID NO: 13/14), peripheral blood at 48 hr. In outline: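 Flow cytometry of blood collected at study termination quantified percent depletion of CD11b+Ly6c+Hi cells and CCR2 expression, using surface markers CD45, CD3, CD11b, Ly6C, human CCR2 after Fc block, with 7AAD viability stain. Compound given in saline:DMSO:PBS formulation, optionally combined with anti-cotinine antibody, incubated 30 min before administration.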
Background: A flow cytometer gives signals particle by particle.

For experiment [4], the target named is anti-cotinine antibody (SEQ ID NO: 11/12, rabbit variable region with human IgG1 Fc DE mutation). The experiment in a line: SPR binding of anti-cotinine antibody to ARM compounds, Biacore T200, 37° C. (Example 202). The note with it: SPR Biacore T200, 37° C., pH 7.4, antibody SEQ ID NO: 11/12 captured on protein A; Kd in molar. In outline: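 Run at 37 °C in 10 mM HEPES pH 7.4, 150 mM NaCl, 0.005% P20, 1% DMSO, with compounds titrated from 200 nM (five 3-fold steps) over protein A–captured antibody. A 1:1 kinetic model on double-referenced data gave rate constants, Kd as koff/kon and residence time 1/koff; results as pKd, run-averaged.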
In general terms: SPR reads the build-up and loss of mass on a sensor chip optically.

For `CC(C)N(C)[C@@H]1CC[C@H](N2CC[C@H](Nc3ncnc4ccc(C(F)(F)F)cc34)C2=O)[C@H](NC(=O)C2CCC(N3CCC(S(=O)(=O)NCCCCCCNC(=O)[C@H]4CC(=O)N(C)[C@@H]4c4cccnc4)CC3)CC2)C1` (single isomer, unassigned) [Example 149], the EC50 in experiment [1] and in experiment [2] was 0.251 nM each time.

On to `CC(C)N(C)[C@@H]1CC[C@H](N2CC[C@H](Nc3ncnc4ccc(C(F)(F)F)cc34)C2=O)[C@H](NC(=O)CCOCCOCCOCCOCCOCCOCCOCCOCCOCCOCCOCCOCCOCCOCCOCCOCCOCCOCCOCCOCCOCCOCCOCCNC(=O)C2CC(=O)N(C)C2c2cccnc2)C1` (stereo in doubt) [Example 43, (2R,3R)-N-(72-(((1R,2S,5R)-5-(isopropyl(methyl)amino)-2-((S)-2-oxo-3-((6-(trifluoromethyl)quinazolin-4-yl)amino)pyrrolidin-1-yl)cyclohexyl)amino)-72-oxo-3,6,9,12,15,18,21,24,27,30,33,36,39,42,45,48,51,54,57,60,63,66,69-tricosaoxadoheptacontyl)-1-methyl-5-oxo-2-(pyridin-3-yl)pyrrolidine-3-carboxamide], for which, in experiment [1], the “ADCC Reporter Assay pEC50” value is 8.8.

As to `CC(C)N(C)[C@@H]1CC[C@H](N2CC[C@H](Nc3ncnc4ccc(C(F)(F)F)cc34)C2=O)[C@H](NC(=O)CCOCCOCCOCCOCCNC(=O)[C@H]2CC(=O)N(C)[C@@H]2c2cccnc2)C1` [Example 39, (2S,3S)-N-(15-(((1R,2S,5R)-5-(Isopropyl(methyl)amino)-2-((S)-2-oxo-3-((6-(trifluoromethyl)quinazolin-4-yl)amino)pyrrolidin-1-yl)cyclohexyl)amino)-15-oxo-3,6,9,12-tetraoxapentadecyl)-1-methyl-5-oxo-2-(pyridin-3-yl)pyrrolidine-3-carboxamide], the EC50 in experiment [1] is 15.8 nM; in experiment [2] it was 2510 nM.

Turning to `CC(C)N(C)[C@@H]1CC[C@H](N2CC[C@H](Nc3ncnc4ccc(C(F)(F)F)cc34)C2=O)[C@H](N[C@H]2CC[C@@H](C(=O)NCCOCCOCCOCCOCCNC(=O)[C@H]3CC(=O)N(C)[C@@H]3c3cccnc3)CC2)C1` [Example 67], the EC50 was 5.01 nM in experiment [1] and 3.98 nM in experiment [2].

Turning to `CC(C)N(C)[C@@H]1CC[C@H](N2CC[C@H](Nc3ncnc4ccc(C(F)(F)F)cc34)C2=O)[C@H](NC(=O)CCOCCNC(=O)COCCNC(=O)CCOCCNC(=O)[C@H]2CC(=O)N(C)[C@@H]2c2cccnc2)C1` [Example 163, (2S,3S)-N-(19-(((1R,2S,5R)-5-(Isopropyl(methyl)amino)-2-((S)-2-oxo-3-((6-(trifluoromethyl)quinazolin-4-yl)amino)pyrrolidin-1-yl)cyclohexyl)amino)-6,12,19-trioxo-3,10,16-trioxa-7,13-diazanonadecyl)-1-methyl-5-oxo-2-(pyridin-3-yl)pyrrolidine-3-carboxamide], the “% Depletion of CCR2 expressing cells” value in experiment [3] turned out to be 89%. For the same molecule, the “pKd of Antibody for ARM Compound of Formula (I)” value (from here on “pKd of Antibody”) in experiment [4] is recorded as 9.07. Further, the EC50 in experiment [2] is 0.871 nM.

For the molecule `CC(C)N(C)[C@@H]1CC[C@H](N2CC[C@H](Nc3ncnc4ccc(C(F)(F)F)cc34)C2=O)[C@H](NC(=O)CCCNc2c(NCCOCCOCCOCCOCCNC(=O)[C@H]3CC(=O)N(C)[C@@H]3c3cccnc3)c(=O)c2=O)C1` [Example 164, (2S,3S)-N-(14-((2-((4-(((1R,2S,5R)-5-(Isopropyl(methyl)amino)-2-((S)-2-oxo-3-((6-(trifluoromethyl)quinazolin-4-yl)amino)pyrrolidin-1-yl)cyclohexyl)amino)-4-oxobutyl)amino)-3,4-dioxocyclobut-1-en-1-yl)amino)-3,6,9,12-tetraoxatetradecyl)-1-methyl-5-oxo-2-(pyridin-3-yl)pyrrolidine-3-carboxamide], the “% Depletion of CCR2 expressing cells” value in experiment [3] is 86%. Besides, the “pKd of Antibody” value in experiment [4] amounted to 9.3225. The EC50 in experiment [2] is 1 nM.

For the molecule `CC(C)N(C)[C@@H]1CC[C@H](N2CC[C@H](Nc3ncnc4ccc(C(F)(F)F)cc34)C2=O)[C@H](NC(=O)CCCCCCCCC(=O)NCCCCCCNC(=O)[C@H]2CC(=O)N(C)[C@@H]2c2cccnc2)C1` [Example 166, N1-((1R,2S,5R)-5-(isopropyl(methyl)amino)-2-((S)-2-oxo-3-((6-(trifluoromethyl)quinazolin-4-yl)amino)pyrrolidin-1-yl)cyclohexyl)-N10-(6-((2S,3S)-1-methyl-5-oxo-2-(pyridin-3-yl)pyrrolidine-3-carboxamido)hexyl)decanediamide], the EC50 is 0.501 nM in experiment [1] and 1.26 nM in experiment [2].

As for `CC(C)N(C)[C@@H]1CC[C@H](N2CC[C@H](Nc3ncnc4ccc(C(F)(F)F)cc34)C2=O)[C@H](NC(=O)CCOCCOCCOCCNc2c(NCCCNC(=O)[C@H]3CC(=O)N(C)[C@@H]3c3cccnc3)c(=O)c2=O)C1` [Example 169, (2S,3S)-N-(3-((2-((2-(2-(2-(3-(((1R,2S,5R)-5-(Isopropyl(methyl)amino)-2-((S)-2-oxo-3-((6-(trifluoromethyl)quinazolin-4-yl)amino)pyrrolidin-1-yl)cyclohexyl)amino)-3-oxopropoxy)ethoxy)ethoxy)ethyl)amino)-3,4-dioxocyclobut-1-en-1-yl)amino)propyl)-1-methyl-5-oxo-2-(pyridin-3-yl)pyrrolidine-3-carboxamide], the “% Depletion of CCR2 expressing cells” value in experiment [3] worked out at 87%. In addition, in experiment [4], the “pKd of Antibody” value is reported as 9.0085. In addition, in experiment [2], the EC50 was 0.251 nM.

Take `CC(C)N(C)[C@@H]1CC[C@H](N2CC[C@H](Nc3ncnc4ccc(C(F)(F)F)cc34)C2=O)[C@H](NC(=O)CCCC(=O)NCCCOCCCNC(=O)CCCNC(=O)[C@H]2CC(=O)N(C)[C@@H]2c2cccnc2)C1` [Example 173, N^1-((1R,2S,5R)-5-(Isopropyl(methyl)amino)-2-((S)-2-oxo-3-((6-(trifluoromethyl)quinazolin-4-yl)amino)pyrrolidin-1-yl)cyclohexyl)-N5-(3-(3-(4-((2S,3S)-1-methyl-5-oxo-2-(pyridin-3-yl)pyrrolidine-3-carboxamido)butanamido)propoxy)propyl)glutaramide]: the “% Depletion of CCR2 expressing cells” value in experiment [3] was 91%. The “pKd of Antibody” value in experiment [4] was determined as 9.1415. The EC50 in experiment [2] was 0.794 nM.

Consider `CC(C)N(C)[C@@H]1CC[C@H](N2CC[C@H](Nc3ncnc4ccc(C(F)(F)F)cc34)C2=O)[C@H](NC(=O)CCCC(=O)N[C@H]2CC[C@@H](CNC(=O)CCOCCNC(=O)[C@H]3CC(=O)N(C)[C@@H]3c3cccnc3)CC2)C1` [Example 179, N^1-((1R,2S,5R)-5-(isopropyl(methyl)amino)-2-((S)-2-oxo-3-((6-(trifluoromethyl)quinazolin-4-yl)amino)pyrrolidin-1-yl)cyclohexyl)-N^5-((1R,4S)-4-((3-(2-((2S,3S)-1-methyl-5-oxo-2-(pyridin-3-yl)pyrrolidine-3-carboxamido)ethoxy)propanamido)methyl)cyclohexyl)glutaramide], for which the “% Depletion of CCR2 expressing cells” value in experiment [3] was 89.5%. The “pKd of Antibody” value in experiment [4] stood at 9.24. Further, in experiment [2], the EC50 was 0.631 nM.
